The experiment concerns the target T1, human P-selectin (Homo sapiens, UniProt P16109).
T1 construct: truncated form of human P-selectin comprised of the lectin and EGF domains (P-LE)
T1 sequence (P16109 42-198): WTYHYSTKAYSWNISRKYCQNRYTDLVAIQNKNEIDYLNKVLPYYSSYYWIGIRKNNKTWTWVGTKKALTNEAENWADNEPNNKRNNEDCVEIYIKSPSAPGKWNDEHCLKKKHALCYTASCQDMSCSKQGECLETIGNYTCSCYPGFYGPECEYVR
The experiment can be described thus: Biacore inhibition of P-selectin binding to PSGL-1 (P-LE to immobilized SGP-3). The conditions noted are these: at 1 mM. As to the method:
Compounds of the invention can be assayed for selectin inhibitory activity using any of the procedures known in the art. One convenient procedure is the determination of IC50 values for inhibition of P-selectin binding to P-selectin glycoprotein ligand-1 (PSGL-1) using Biacore.
The Biacore 3000 is an instrument that uses surface plasmon resonance to detect binding of a solution phase analyte to an immobilized ligand on a sensor chip surface. The analyte sample is injected under flow using a microfluidic system. Binding of analyte to ligand causes a change in the angle of refracted light at the surface of the sensor chip, measured by the Biacore instrument in resonance units (RUs).
SGP-3 is a purified sulfoglycopeptide form of human PSGL-1 that contains the P-selectin binding determinants (See Somers et al., 2000, Cell 103, 467-479). SGP-3 was biotinylated via amine chemistry at a unique C-terminal lysine residue and immobilized on streptavidin-coated SA sensor chip. […]
The Biacore assay measures the signal in RU produced by binding of P-LE to SGP-3 in the presence and absence of inhibitors. Percent inhibition of binding is calculated by dividing the inhibited signal by the uninhibited signal subtracting this value from one then multiplying by one hundred. […] The data from this titration are plotted, RU values vs. concentration, and the IC50 is determined by extrapolation from the plot. […]

With `CC1(C)[C@@H](O[C@H]2O[C@H](C(=O)O)[C@@H](O)[C@H](O)[C@H]2O[C@@H]2O[C@H](C(=O)O)[C@@H](O)[C@H](O)[C@H]2O)CC[C@]2(C)[C@H]3C(=O)C=C4[C@@H]5C[C@@](C)(C(=O)O)CC[C@]5(C)CC[C@@]4(C)[C@]3(C)CC[C@@H]12` [Glycerrhizzin], the “percent inhibition of binding (positive control)” value is given as 50%.
